One data set addresses T1, GSNOR (Homo sapiens, UniProt P11766).
T1 construct: made in house; host or cells: E. coli
As to the kind of experiment: GSNOR assay (inhibition of GSNOR activity in vitro). In kind it is biochemical. The following applies: 0.240 mM GSNO, 0.300 mM NADH, pH 7.4, 25° C.; read-out: GSNOR inhibitor IC50. As to the method: Various compounds were tested in vitro for their ability to inhibit GSNOR activity.
Pre-cultures were grown from stabs of a GSNOR glycerol stock in 2XYT media containing 100 ug/ml ampicillin after an overnight incubation at 37° C. Cells were then added to fresh 2XYT (4 L) containing ampicillin and grown to an OD (A600) of 0.6-0.9 at 37° C. before induction. GSNOR expression was induced with 0.1% arabinose in an overnight incubation at 20° C.
E. coli cell paste was lysed by nitrogen cavitation and the clarified lysate purified by Ni affinity chromatography on an AKTA FPLC (Amersham Pharmacia). The column was eluted in 20 mM Tris pH 8.0/250 mM NaCl with a 0-500 mM imidazole gradient. […] GSNOR was recovered in the flowthrough fraction and for crystallography is further purified by Q-Sepharose and Heparin flowthrough chromatography in 20 mM Tris pH 8.0, 1 mM DTT, 10 uM ZnSO4.
GSNO and Enzyme/NADH Solutions are made up fresh each day. The Solutions are filtered and allowed to warm to room temperature. GSNO Solution: 100 mM NaPO4 (pH 7.4), 0.480 mM GSNO. 396 μL of GSNO Solution is added to a cuvette followed by 8 μL of test compound in DMSO (or DMSO only for full reaction control) and mixed with the pipette tip. Compounds to be tested are made up at a stock concentration of 10 mM in 100% DMSO. 2 fold serial dilutions are done in 100% DMSO. 8 μL of each dilution are added to an assay so that the final concentration of DMSO in the assay is 1%. The concentrations of compounds tested range from 100 to 0.003 μM. Enzyme/NADH Solution: 100 mM NaPO4 (pH 7.4), 0.600 mM NADH, 1.0 μg/mL GSNO Reductase. 396 μL of the Enzyme/NADH Solution is added to the cuvette to start the reaction. The cuvette is placed in the Cary 3E UV/Visible Spectrophotometer and the change in 340 nm absorbance/min at 25° C. is recorded for 3 minutes. The assays are done in triplicate for each compound concentration. IC50's for each compound are calculated using the standard curve analysis in the Enzyme Kinetics Module of SigmaPlot.
Final assay conditions: 100 mM NaPO4, pH 7.4, 0.240 mM GSNO, 0.300 mM NADH, 0.5 μg/mL GSNO Reductase and 1% DMSO. Final volume: 800 μL/cuvette.

The nature of data set [1]: Mouse pharmacokinetic (PK) study. The data set is classed as in vivo. Conditions: plasma, male BALB/c mice, PO 10 mg/kg vs IV 2 mg/kg, read-out: oral bioavailability (% F). The source says: The mouse is used to determine the pharmacokinetics of compounds of the invention. This species is widely used to assess the bioavailability of compounds by administering both oral (PO) and intravenous (IV) test articles. Efficacy of the compounds of the invention are compared by assessing plasma exposure in male BALB/c mice either via IV or PO administration at the times of peak activity.
Compounds of the invention are reconstituted in a phosphate buffered saline (PBS)/10% Solutol (HS 15) clear solution resulting in a concentration of 0.2 mg/mL and administered to mice (2 mg/kg) as a single IV dose. Animals dosed via the lateral tail vein. […] The plasma is transferred into labeled polypropylene tubes and frozen at −70° C. until analyzed by LC/MS/MS.
The compounds of the invention are reconstituted in 40% Propylene Glycol/40% Propylene Carbonate/20% of a 5% Sucrose clear solution resulting in a concentration of 2 mg/mL and administered to mice (10 mg/kg) as a single oral dose via gavage. […] The plasma is transferred into labeled polypropylene tubes and frozen at −70° C. until analyzed by LC/MS/MS.
Plasma samples at each timepoint were analyzed using a LC-MS/MS with a lower limit of quantification (LLOQ) of 1 ng/mL. […]
In addition to the above PK parameters, bioavailability (% F) was calculated.

Where only a bound is given, the exact number is not on record here.

T1 sequence (P11766 whole entry): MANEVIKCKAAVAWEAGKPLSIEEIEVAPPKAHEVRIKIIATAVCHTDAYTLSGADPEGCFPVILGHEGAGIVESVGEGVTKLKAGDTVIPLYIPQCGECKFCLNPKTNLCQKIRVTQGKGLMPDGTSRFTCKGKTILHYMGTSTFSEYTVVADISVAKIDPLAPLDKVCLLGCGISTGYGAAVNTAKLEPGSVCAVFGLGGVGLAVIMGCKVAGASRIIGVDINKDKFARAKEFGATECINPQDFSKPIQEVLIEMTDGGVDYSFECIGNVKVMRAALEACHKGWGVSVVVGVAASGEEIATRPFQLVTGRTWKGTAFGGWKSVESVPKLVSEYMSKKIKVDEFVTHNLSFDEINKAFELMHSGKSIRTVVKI

By IC50 is commonly meant the concentration needed to halve the response being measured. A word on the bioavailability: it is dose-corrected exposure relative to a reference, in per cent. Consider `O=C1CC(c2ccc(C(=O)O)c(O)c2)C(c2ccccc2)=C(c2ccccc2)N1` (centres unmarked) [Example 6, 2-hydroxy-4-(2-oxo-5,6-diphenyl-1,2,3,4-tetrahydropyridin-4-yl)benzoic acid], for which the IC50 at GSNOR was under 100 nM. In addition, in data set [1], the bioavailability is 22%.

Values taken from patent US9283213B2, “Dihydropyridin-2(1H)-one compounds as S-nitrosoglutathione reductase inhibitors and neurokinin-3 receptor antagonists” (N30 Pharmaceuticals, Inc., priority 2010, dated 2016).
